Laboratory results taken from US10329304B2, “Compounds and methods for inhibition of hedgehog signaling and phosphodiesterase” (Vanderbilt University, priority 2014, dated 2019).
pIC50: −log10 of the molar value. Where “and” joins values, the source holds several entries; their conditions need not be identical. Identical values can stand only once. Entries after “also recorded” stand apart in the source; their conditions may differ.

Experiments:
[1] = tested on: PDE4 isoforms; experiment: In vitro PDE dose-response assays (BPS Biosciences); assay type: biochemical; details: isoforms of PDE4 A-D; read-out: IC50 range over PDE4 isoforms
Procedure: In vitro PDE profiling and dose-response assays were performed by BPS Biosciences (San Diego, Calif.). Kinetic Mechanism of inhibition studies were conducted by Millipore (St. Louis, Mo.). In brief, the PDE assay measures fluorescent polarization of FAM-AMP as FAM-cAMP is converted to FAM-AMP by PDE), the binding agent.
A series of dilutions of the test compound were prepared with 10% DMSO in assay buffer and 5 μl of the dilution was added to a 50 μl reaction so that the final concentration of DMSO is 1% in all of reactions. All of the PDE enzymatic reactions were conducted in duplicate at room temperature for 60 minutes in a 50 μl mixture containing PDE assay buffer (10 mM Tris-HCl, pH7.4, 10 mM MaCl2, 0.05% Tween 20), 100 nM FAM-cAMP, a PDE enzyme and a test compound.
After the enzymatic reaction, 100 μl of a binding solution (1:100 dilution of the binding agent, which contains the nano beads that recognize FAM-AMP, with the binding agent diluent) was added to each reaction and the reaction was performed at room temperature for 60 minutes. Fluorescence intensity was measured at an excitation of 485 nm and an emission of 528 nm using a Tecan Infinite M1000 microplate reader. Assays done by Millipore were conducted similarly with changes noted below: […]

[2] = molecular target: T1, PDE7A1 (Homo sapiens, UniProt Q13946); experiment: In vitro PDE assay; assay type: biochemical
T1 construct: purchased BPS Biosciences (San Diego, Calif.)
In short: (§1)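 Recombinant human PDE incubated 60 min at room temperature in duplicate with 100 nM FAM-cAMP in 10 mM Tris-HCl pH 7.4, 10 mM MgCl2, 0.05% Tween 20, 1% DMSO. FAM-AMP product captured by bead binding agent for 60 min, then fluorescence read at 485/528 nm.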

[3] = molecular target: T2, PDE11A4 (Homo sapiens, UniProt Q9HCR9); experiment: In vitro PDE assay; assay type: biochemical
T2 construct: purchased BPS Biosciences (San Diego, Calif.)
In short: as §1

[4] = molecular target: T3, PDE9A1 (Homo sapiens, UniProt O76083); experiment: In vitro PDE assay; assay type: biochemical
T3 construct: purchased BPS Biosciences (San Diego, Calif.)
In short: as §1

[5] = molecular target: T4, PDE10A2 (Homo sapiens, UniProt Q9Y233); experiment: In vitro PDE assay; assay type: biochemical
T4 construct: purchased BPS Biosciences (San Diego, Calif.)
In short: as §1

[6] = molecular target: T5, PDE2A (Homo sapiens, UniProt O00408); experiment: In vitro PDE assay; assay type: biochemical
T5 construct: purchased BPS Biosciences (San Diego, Calif.)
In short: as §1

[7] = molecular target: T6, PDE5A1 (Homo sapiens, UniProt O76074); experiment: In vitro PDE assay; assay type: biochemical
T6 construct: purchased BPS Biosciences (San Diego, Calif.)
In short: as §1

[8] = molecular target: T7, PDE3A (Homo sapiens, UniProt Q14432); experiment: In vitro PDE assay; assay type: biochemical
T7 construct: purchased BPS Biosciences (San Diego, Calif.)
In short: as §1

[9] = molecular target: T8, PDE1A1 (Homo sapiens, UniProt P54750); experiment: In vitro PDE assay; assay type: biochemical
T8 construct: purchased BPS Biosciences (San Diego, Calif.)
In short: as §1

[10] = molecular target: T9, PDE6C (Homo sapiens, UniProt P51160); experiment: In vitro PDE assay; assay type: biochemical
T9 construct: purchased BPS Biosciences (San Diego, Calif.)
In short: as §1

[11] = molecular target: T10, PDE8A1 (Homo sapiens, UniProt O60658); experiment: In vitro PDE assay; assay type: biochemical
T10 construct: purchased BPS Biosciences (San Diego, Calif.)
In short: as §1

[12] = tested on: Influenza; experiment: Influenza antiviral effect; assay type: cell-based
[13] = tested on: Dengue; experiment: Dengue viral CPE assay; assay type: cell-based
Text: The small molecule PDE4 inhibitors of the presently disclosed subject matter are actively anti-viral in viral CPE (cytopathic effect) assays versus RSV (respiratory syncytial virus), Dengue (1 experiment), and BVDV (bovine viral diarrhea virus, surrogate for human hepatitis C virus). Of note, PDE4 inhibitors are now approved for COPD, for which RSV may be an exacerbating factor).

[14] = tested on: panel of 158 GPCRs; experiment: Millipore-GPCR Panel (cells expressing Gα15, Ca2+ signaling); assay type: cell-based
Procedure: (§2) Profiling assays were not performed in-house. Compounds were shipped to the following companies for possible target identification: Kinase profiling assays were performed by DiscoverRx (San Diego, Calif.) using a phage display model; GPCR profiling assays were performed by Millipore (St. Louis, Mo.) using in cells expressing Gα15, a promiscuous G protein that enhances GPCR coupling to downstream Ca^2+ signaling pathways; phosphatase profiling assay was performed by Millipore (Dundee, UK).

[15] = tested on: panel of 442 kinases; experiment: Kinase profiling assays (DiscoverRx, phage display model); assay type: binding
Procedure: as §2

[16] = tested on: cAMP; experiment: FRET-based cAMP sensors in NIH3T3 cells; assay type: cell-based; details: 2 μM
Text: To visualize changes in cAMP concentrations in individual cells and cellular regions, we utilized two distinct FRET (fluorescence resonance energy transfer)-based cAMP sensors: the Epac-FRET sensor (mTurquoiseΔ-Epac(CD, ΔDEP)-cp173 Venus-Venus)^35, which detects cytosolic cAMP concentration and the PKA-based cAMP sensor (PKAC-YFP and PKARII-CFP combination), which has been used to document changes in local cAMP levels in the centrosome and basal body.

[17] = tested on: RSV (respiratory syncytial virus); experiment: RSV CPE / plaque assay in HEp-2 cells; assay type: cell-based
Procedure: In Table 11, the results of CPE assays following infection of human epidermoid cancer cells (HEp-2) with RSV. Even at 10,000 higher viral titers, our compound achieved complete inhibition at 10 μM. At 1 and 3 μM, the compound achieved over 98% reduction. The exemplary compound alone caused no apparent cytotoxicity at these concentrations.

[18] = tested on: panel of 21 phosphatases; experiment: Phosphatase profiling assay (Millipore); assay type: biochemical, human
Procedure: as §2

[19] = tested on: Daoy cells; experiment: Daoy cell proliferation (PH3 staining) and apoptosis (TUNEL); assay type: cell-based, human; details: 10 μM, 48-hours
[20] = tested on: mouse cardiomyocytes; experiment: Contractility of isolated mouse cardiomyocytes; assay type: cell-based
Text: (§3) To observe whether the effects of eggmanone administration are cardiomyocyte specific or due to off target effects, the contractility of individual mouse cardiomyocytes and the tone of ascending/descending aorta was observed. In mouse cardiomyocytes, Egm caused a 50% increase in contractility over vehicle control (FIG. 32).

[21] = tested on: mouse aorta; experiment: Myography of cannulated mouse aorta; details: listed as Egm
Text: For myography, to test the vascular tone for presense of downstream or off target effects, mouse aorta was mounted and cannulated on a closed system. A physiological buffer (with respect to pH, CO2, and temperature) was circulated through the vessel.

[22] = tested on: hiPSC-CMs; experiment: Contractile function of hiPSC-derived cardiomyocytes; assay type: cell-based, human
[23] = tested on: mouse cardiomyocytes; experiment: Calcium handling in isolated mouse cardiomyocytes; assay type: cell-based; details: 10 μM
Text: as §3

[24] = tested on: RSV; experiment: RSV infection in mice (body weight, lung plaque assay); details: 20 mg/kg IP 3× daily

T2 sequence (Q9HCR9 whole entry): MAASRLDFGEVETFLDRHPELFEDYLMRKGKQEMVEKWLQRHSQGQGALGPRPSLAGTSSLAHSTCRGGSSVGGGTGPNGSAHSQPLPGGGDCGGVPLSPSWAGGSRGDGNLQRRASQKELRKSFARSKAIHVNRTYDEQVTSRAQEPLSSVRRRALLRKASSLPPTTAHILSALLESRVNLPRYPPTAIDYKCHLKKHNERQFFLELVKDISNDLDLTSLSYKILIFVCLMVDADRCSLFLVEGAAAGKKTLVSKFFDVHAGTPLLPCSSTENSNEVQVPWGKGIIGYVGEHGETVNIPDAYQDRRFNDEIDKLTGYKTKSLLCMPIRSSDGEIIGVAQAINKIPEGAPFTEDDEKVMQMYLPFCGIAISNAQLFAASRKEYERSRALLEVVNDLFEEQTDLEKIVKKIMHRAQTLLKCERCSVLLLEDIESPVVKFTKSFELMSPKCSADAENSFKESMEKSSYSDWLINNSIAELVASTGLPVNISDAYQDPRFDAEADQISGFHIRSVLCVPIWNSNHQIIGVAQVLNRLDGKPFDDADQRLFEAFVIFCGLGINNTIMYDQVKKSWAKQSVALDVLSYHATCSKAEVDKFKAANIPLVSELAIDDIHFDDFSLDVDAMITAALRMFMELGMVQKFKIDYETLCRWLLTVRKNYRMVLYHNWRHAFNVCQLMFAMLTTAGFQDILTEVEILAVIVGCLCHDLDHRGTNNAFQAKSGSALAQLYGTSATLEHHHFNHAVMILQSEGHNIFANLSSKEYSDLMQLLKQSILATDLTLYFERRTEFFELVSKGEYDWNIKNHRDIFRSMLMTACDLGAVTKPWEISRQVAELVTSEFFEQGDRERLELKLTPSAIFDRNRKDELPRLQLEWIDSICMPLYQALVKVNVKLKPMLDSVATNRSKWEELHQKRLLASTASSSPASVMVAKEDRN
T4 sequence (Q9Y233 267-1055): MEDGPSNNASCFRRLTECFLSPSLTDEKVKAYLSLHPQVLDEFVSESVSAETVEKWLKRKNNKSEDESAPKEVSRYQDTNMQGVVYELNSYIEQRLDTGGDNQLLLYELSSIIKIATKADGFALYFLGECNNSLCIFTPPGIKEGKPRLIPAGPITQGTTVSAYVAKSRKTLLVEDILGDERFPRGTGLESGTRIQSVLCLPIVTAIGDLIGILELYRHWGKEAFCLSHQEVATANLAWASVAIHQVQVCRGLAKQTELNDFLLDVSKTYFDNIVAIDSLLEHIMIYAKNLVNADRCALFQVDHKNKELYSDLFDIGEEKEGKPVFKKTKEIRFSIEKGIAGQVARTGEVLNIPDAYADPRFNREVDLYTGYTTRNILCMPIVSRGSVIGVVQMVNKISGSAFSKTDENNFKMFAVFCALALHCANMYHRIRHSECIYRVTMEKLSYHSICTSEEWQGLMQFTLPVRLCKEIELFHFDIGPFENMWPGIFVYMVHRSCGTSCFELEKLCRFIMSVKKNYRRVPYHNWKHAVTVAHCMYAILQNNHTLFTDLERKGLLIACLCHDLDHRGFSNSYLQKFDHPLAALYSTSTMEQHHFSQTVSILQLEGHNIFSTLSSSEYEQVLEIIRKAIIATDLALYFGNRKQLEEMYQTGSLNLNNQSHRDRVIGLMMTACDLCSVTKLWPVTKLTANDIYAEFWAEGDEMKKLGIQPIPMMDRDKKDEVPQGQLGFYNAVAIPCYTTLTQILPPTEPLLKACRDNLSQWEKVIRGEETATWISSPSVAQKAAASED
T8 sequence (P54750 1-529 isoform P54750-6): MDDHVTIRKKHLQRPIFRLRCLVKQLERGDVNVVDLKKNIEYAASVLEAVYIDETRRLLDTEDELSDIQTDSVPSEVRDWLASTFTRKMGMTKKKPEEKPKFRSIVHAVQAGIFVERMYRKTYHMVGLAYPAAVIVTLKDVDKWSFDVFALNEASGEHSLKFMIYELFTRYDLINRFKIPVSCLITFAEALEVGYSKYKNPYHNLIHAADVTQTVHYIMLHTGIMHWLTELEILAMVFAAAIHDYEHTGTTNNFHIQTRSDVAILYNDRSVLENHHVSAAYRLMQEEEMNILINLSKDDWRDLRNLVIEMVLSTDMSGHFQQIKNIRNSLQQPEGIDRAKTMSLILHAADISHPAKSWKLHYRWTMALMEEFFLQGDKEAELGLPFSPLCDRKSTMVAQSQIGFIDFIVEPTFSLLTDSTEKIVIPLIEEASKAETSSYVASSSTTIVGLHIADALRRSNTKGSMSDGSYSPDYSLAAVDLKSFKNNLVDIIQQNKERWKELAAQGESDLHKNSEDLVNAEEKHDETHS
T7 sequence (Q14432 whole entry): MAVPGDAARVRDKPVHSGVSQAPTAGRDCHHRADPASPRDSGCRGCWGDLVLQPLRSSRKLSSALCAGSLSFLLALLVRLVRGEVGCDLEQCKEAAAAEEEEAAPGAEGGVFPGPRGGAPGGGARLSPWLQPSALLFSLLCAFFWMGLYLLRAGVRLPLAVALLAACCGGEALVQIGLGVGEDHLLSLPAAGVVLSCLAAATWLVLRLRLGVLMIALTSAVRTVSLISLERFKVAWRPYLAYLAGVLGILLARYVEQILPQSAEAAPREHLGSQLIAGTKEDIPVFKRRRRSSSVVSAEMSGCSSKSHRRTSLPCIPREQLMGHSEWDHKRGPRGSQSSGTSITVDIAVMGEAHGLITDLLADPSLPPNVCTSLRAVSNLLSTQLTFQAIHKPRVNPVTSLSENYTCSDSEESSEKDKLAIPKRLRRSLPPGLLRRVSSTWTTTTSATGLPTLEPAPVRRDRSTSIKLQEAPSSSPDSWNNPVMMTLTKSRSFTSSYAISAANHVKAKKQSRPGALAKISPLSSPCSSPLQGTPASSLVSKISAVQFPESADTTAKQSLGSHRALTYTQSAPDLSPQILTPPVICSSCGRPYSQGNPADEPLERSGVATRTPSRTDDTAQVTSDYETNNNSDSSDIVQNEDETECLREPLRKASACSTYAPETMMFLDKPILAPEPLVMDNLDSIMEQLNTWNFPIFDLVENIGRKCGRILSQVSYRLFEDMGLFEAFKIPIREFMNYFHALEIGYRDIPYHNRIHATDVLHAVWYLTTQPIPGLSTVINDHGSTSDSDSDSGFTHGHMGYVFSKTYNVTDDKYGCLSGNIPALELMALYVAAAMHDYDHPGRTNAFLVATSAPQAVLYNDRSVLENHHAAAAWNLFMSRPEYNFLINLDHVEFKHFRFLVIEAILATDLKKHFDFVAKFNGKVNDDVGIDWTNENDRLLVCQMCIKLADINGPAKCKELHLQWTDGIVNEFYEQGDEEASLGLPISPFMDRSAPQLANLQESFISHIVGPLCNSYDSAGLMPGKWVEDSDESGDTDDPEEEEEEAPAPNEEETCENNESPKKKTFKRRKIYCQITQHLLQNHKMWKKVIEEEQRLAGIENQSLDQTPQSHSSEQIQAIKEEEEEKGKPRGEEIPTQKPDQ
T1 sequence (Q13946 whole entry): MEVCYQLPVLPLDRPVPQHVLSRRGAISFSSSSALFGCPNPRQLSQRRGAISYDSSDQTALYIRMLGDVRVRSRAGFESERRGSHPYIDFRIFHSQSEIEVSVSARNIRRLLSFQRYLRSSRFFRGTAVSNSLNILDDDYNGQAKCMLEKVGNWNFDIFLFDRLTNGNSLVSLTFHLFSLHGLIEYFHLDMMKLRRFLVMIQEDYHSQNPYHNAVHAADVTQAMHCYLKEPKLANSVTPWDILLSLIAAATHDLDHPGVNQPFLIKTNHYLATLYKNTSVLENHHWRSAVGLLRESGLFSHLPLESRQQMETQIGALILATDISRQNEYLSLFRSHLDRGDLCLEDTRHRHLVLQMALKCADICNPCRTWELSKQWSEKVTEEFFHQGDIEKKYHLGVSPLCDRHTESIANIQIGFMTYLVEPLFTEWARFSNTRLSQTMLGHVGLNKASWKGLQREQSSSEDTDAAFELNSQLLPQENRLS
T3 sequence (O76083 whole entry): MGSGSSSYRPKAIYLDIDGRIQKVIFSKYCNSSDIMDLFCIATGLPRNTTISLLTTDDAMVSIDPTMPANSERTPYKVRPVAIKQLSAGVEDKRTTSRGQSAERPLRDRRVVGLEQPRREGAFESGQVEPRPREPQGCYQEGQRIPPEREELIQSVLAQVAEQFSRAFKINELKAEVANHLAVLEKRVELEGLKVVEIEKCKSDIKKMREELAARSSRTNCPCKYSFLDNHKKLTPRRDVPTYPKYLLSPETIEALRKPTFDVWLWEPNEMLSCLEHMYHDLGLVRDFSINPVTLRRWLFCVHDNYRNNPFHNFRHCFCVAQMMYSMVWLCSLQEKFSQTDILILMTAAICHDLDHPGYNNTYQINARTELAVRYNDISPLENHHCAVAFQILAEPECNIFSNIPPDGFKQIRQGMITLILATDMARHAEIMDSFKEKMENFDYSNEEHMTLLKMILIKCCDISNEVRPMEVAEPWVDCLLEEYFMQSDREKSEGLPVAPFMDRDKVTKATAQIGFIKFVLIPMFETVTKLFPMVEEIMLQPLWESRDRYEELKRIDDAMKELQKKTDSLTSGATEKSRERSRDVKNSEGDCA

With C=C(C)Cn1c(SCC(=O)c2cccs2)nc2sc3c(c2c1=O)CCCC3 [Eggmanone, 3-(2-methylallyl)-2-((2-oxo-2-(thiophen-2-yl)ethyl)thio)-5,6,7,8-tetrahydrobenzo[4,5]thieno[2,3-d]pyrimidine-4(3H)-one] the pIC50 [1] was 5.52 to 6.10 and 5.43 to 6.10, the inhibition at 50 µM [2] was < 10% and the pIC50 [3] was < 4.30. For the same compound, the inhibition at 50 µM [4] was < 10%, the inhibition at 50 µM [5] was < 10% and the pIC50 [6] was < 4.30. The inhibition at 50 µM [7] was < 10%, the pIC50 [8] was < 4.30 and the inhibition at 50 µM [9] was < 10%. The inhibition at 50 µM [10] was < 10%, the inhibition at 50 µM [11] was < 10% and the “Antiviral effect on Influenza” value [12] was “has antiviral effects”. For the same compound, the “Antiviral effect on Dengue” value [13] was “has antiviral effects”, the “agonist or antagonist activity” value [14] was “did not exhibit significant agonist or antagonist activity” and the significant inhibition [14] was > 10 µM. The “agonist or antagonist activity” value [15] was “did not exhibit significant agonist or antagonist activity”, the significant inhibition [15] was > 10 µM and the “Cytosolic FRET signal (Epac-FRET sensor)” value [16] was “had no effect on the cytosolic FRET signal”. The “cAMP levels by PKA-based cAMP sensor” value [16] was “increased cAMP levels only at discrete regions”, the “Antiviral effect on RSV” value [17] was “has antiviral effects” and the “agonist or antagonist activity” value [18] was “did not exhibit significant agonist or antagonist activity”. For the same compound, the significant inhibition [18] was > 10 µM.
For C=C(C)Cn1c(SCC(=O)c2cccs2)nc2sc3c(c2c1=O)CCCC3 [EGM, Eggmanone], the “Apoptosis (TUNEL staining)” value [19] was “increased apoptosis”, the “Cell proliferation (phospho-histone H3 staining)” value [19] was “decreased cell proliferation” and the “increase in contractility over vehicle control” value [20] was 50%. For the same compound, the “Vessel diameter after pre-constriction” value [21] was “little to no contraction or dilation of the vessel; also recorded: had no effect on the vessel”, the Contractile function [22] was “increased contractile function” and the Calcium handling [23] was “not associated with alterations in calcium handling”. The Normalized body weight [24] was “slightly lower than that with control” and the “Lung viral titer (plaque assay)” value ([24]; day 3) was “significantly reduced viral titer at day 3”.
